# Data from ChEMBL document CHEMBL3407397, “Effect of size and N-terminal residue characteristics on bacterial cell penetration and antibacterial activity of the proline-rich peptide Bac7” (J Med Chem, 2015).
# Calls of active or inactive are those of the source. The calls are words filed in the database; no cut-off is given here. Non-standard residues stand in square brackets, D forms with d. Residues, ends and D or L forms follow the SMILES beside them. *: point of attachment. X1 = F[B-]1(F)n2c(ccc2*)C=C2C=CC=[N+]21; Cit = NC(=O)NCCC[C@H](N)C(=O)O
# Key:
# [1] = system: Escherichia coli; assay: Antimicrobial activity against delta-waaG deletion mutant containing Escherichia coli BW25113 incubated for 18 hrs at 37 degC by broth microdilution method; format: functional; conditions: BW25113, 18 h
# [2] = system: Escherichia coli; assay: Antimicrobial activity against Escherichia coli ATCC 25922 incubated for 18 hrs at 37 degC by broth microdilution method; format: functional; conditions: ATCC 25922, 18 h
# [3] = system: Escherichia coli; assay: Bactericidal activity against O-antigen lacking LPS containing wild type Escherichia coli BW25113 assessed as bacterial killing at 4 uM incubated for 3.5 hrs; format: functional, organism-based
# [4] = system: Escherichia coli; assay: Antimicrobial activity against Escherichia coli HB101 incubated for 18 hrs at 37 degC by broth microdilution method; format: functional; conditions: HB101, 18 h
# [5] = system: Escherichia coli; assay: Drug uptake in O-antigen lacking LPS containing wild type Escherichia coli BW25113 up to 32 uM incubated for 60 mins by propidium iodide staining based cytofluorimetric method; format: ADME, organism-based; conditions: in vivo, 1 h
# [6] = system: Escherichia coli; assay: Antimicrobial activity against delta-sbmA deletion mutant containing Escherichia coli BW25113 incubated for 18 hrs at 37 degC by broth microdilution method; format: functional; conditions: BW25113, 18 h
# [7] = system: Escherichia coli; assay: Bactericidal activity against delta-waaG deletion mutant containing wild type Escherichia coli BW25113 assessed as bacterial killing at 4 uM incubated for 3.5 hrs; format: functional, organism-based
# [8] = system: Escherichia coli; assay: Antimicrobial activity against O-antigen lacking LPS containing wild type Escherichia coli BW25113 incubated for 18 hrs at 37 degC by broth microdilution method; format: functional; conditions: BW25113, 18 h
# [9] = system: Escherichia coli; assay: Drug uptake in delta-waaG deletion mutant containing Escherichia coli BW25113 at 4 uM up to 3.5 hrs in presence of trypan blue quencher; format: ADME, organism-based; conditions: in vivo
# [10] = system: Escherichia coli; assay: Drug uptake in O-antigen lacking LPS containing wild type Escherichia coli BW25113 at 1 uM up to 3.5 hrs in presence of trypan blue quencher; format: ADME, organism-based; conditions: in vivo
# [11] = system: Escherichia coli; assay: Drug uptake in Escherichia coli ATCC 25922 assessed as mean fluorescence intensity using BODIPY-labeled compound at 0.25 to 4 uM incubated for 10 mins by flow cytometry; format: ADME, organism-based; conditions: in vivo
# [12] = system: Escherichia coli; assay: Drug uptake in Escherichia coli ATCC 25922 assessed as mean fluorescence intensity using BODIPY-labeled compound at 0.25 to 4 uM incubated for 60 mins in presence of trypan blue quencher by flow cytometry; format: ADME, organism-based; conditions: in vivo, 1 h
# [13] = system: Escherichia coli; assay: Drug uptake in Escherichia coli ATCC 25922 assessed as mean fluorescence intensity using BODIPY-labeled compound at 0.25 uM incubated for 10 mins by confocal microscopy; format: ADME, organism-based; conditions: in vivo
# [14] = system: Escherichia coli; assay: Drug uptake in Escherichia coli ATCC 25922 assessed as mean fluorescence intensity using BODIPY-labeled compound at 0.25 to 4 uM incubated for 10 mins in presence of trypan blue quencher by flow cytometry; format: ADME, organism-based; conditions: in vivo
# [15] = system: Escherichia coli; assay: Drug uptake in Escherichia coli ATCC 25922 assessed as mean fluorescence intensity using BODIPY-labeled compound at 0.25 to 4 uM incubated for 60 mins by flow cytometry; format: ADME, organism-based; conditions: in vivo, 1 h
# [16] = system: Escherichia coli; assay: Bacteriostatic activity against O-antigen lacking LPS containing wild type Escherichia coli BW25113 at 4 uM incubated for 3.5 hrs; format: functional, organism-based
# [17] = system: Escherichia coli; assay: Bacteriostatic activity against delta-waaG deletion mutant containing wild type Escherichia coli BW25113 at 4 uM incubated for 3.5 hrs; format: functional, organism-based
Molecule,MIC [4],Drug uptake [10],Drug uptake [11],Drug uptake [12],Drug uptake [14],Drug uptake [15],MIC [1],MIC [2],MIC [6],MIC [8],also measured
CC[C@H](C)[C@H](NC(=O)[C@H](CCCNC(=N)N)NC(=O)[C@@H](N)CCCNC(=N)N)C(=O)N[C@@H](CCCNC(=N)N)C(=O)N1CCC[C@H]1C(=O)N[C@@H](CCCNC(=N)N)C(=O)N1CCC[C@H]1C(=O)N1CCC[C@H]1C(=O)N[C@@H](CCCNC(=N)N)C(=O)N[C@@H](CC(C)C)C(=O)N1CCC[C@H]1C(=O)N[C@@H](CCCNC(=N)N)C(=O)N1CCC[C@H]1C(=O)N[C@@H](CCCNC(=N)N)C(=O)N1CCC[C@H]1C(=O)N[C@@H](CCCNC(=N)N)C(=O)N1CCC[C@H]1C(=O)N[C@@H](CC(C)C)C(=O)N1CCC[C@H]1C(=O)N[C@@H](Cc1ccc(O)cc1)C(=O)N1CCC[C@H]1C(=O)N[C@@H](CCCNC(=N)N)C(=O)N1CCC[C@H]1C(=O)O,0.5 µM,–,–,–,–,–,0.5 µM,0.5 µM,8 µM,1 µM,Activity [3]: Active; Drug uptake [5]: Not Active; Activity [7]: Active
CC[C@H](C)[C@H](NC(=O)[C@H](CCCNC(=N)N)NC(=O)[C@@H](N)CCCNC(=N)N)C(=O)N[C@@H](CCCNC(=N)N)C(=O)N1CCC[C@H]1C(=O)N[C@@H](CCCNC(=N)N)C(=O)N1CCC[C@H]1C(=O)N1CCC[C@H]1C(=O)N[C@@H](CCCNC(=N)N)C(=O)N[C@@H](CC(C)C)C(=O)N1CCC[C@H]1C(=O)N[C@@H](CCCNC(=N)N)C(=O)N1CCC[C@H]1C(=O)N[C@@H](CCCNC(=N)N)C(=O)N1CCC[C@H]1C(=O)N[C@@H](CCCNC(=N)N)C(=O)N1CCC[C@H]1C(=O)N[C@@H](CC(C)C)C(=O)N1CCC[C@H]1C(=O)N[C@@H](Cc1ccccc1)C(=O)N1CCC[C@H]1C(=O)N[C@@H](CCCNC(=N)N)C(=O)N1CCC[C@H]1C(=O)N[C@@H](CSc1ccc2n1[B-](F)(F)[N+]1=CC=CC1=C2)C(=O)O (H-RRIRPRPPRLPRPRPRPLPFPRPC(X1)-OH),–,Not Active,Active,Active,Active,Active,–,–,–,–,–
CC[C@H](C)[C@H](NC(=O)[C@H](CCCNC(=N)N)NC(=O)[C@@H](N)CCCNC(=N)N)C(=O)N[C@@H](CCCNC(=N)N)C(=O)N1CCC[C@H]1C(=O)N[C@@H](CCCNC(=N)N)C(=O)N1CCC[C@H]1C(=O)N1CCC[C@H]1C(=O)N[C@@H](CCCNC(=N)N)C(=O)N[C@@H](CC(C)C)C(=O)N1CCC[C@H]1C(=O)N[C@@H](CCCNC(=N)N)C(=O)N1CCC[C@H]1C(=O)N[C@@H](CCCNC(=N)N)C(=O)N1CCC[C@H]1C(=O)N[C@@H](CCCNC(=N)N)C(=O)N1CCC[C@H]1C(=O)N[C@@H](CC(C)C)C(=O)N1CCC[C@H]1C(=O)N[C@@H](Cc1ccccc1)C(=O)N1CCC[C@H]1C(=O)N[C@@H](CCCNC(=N)N)C(=O)N1CCC[C@H]1C(=O)NCC(=O)N1CCC[C@H]1C(=O)N[C@@H](CCCNC(=N)N)C(=O)N1CCC[C@H]1C(=O)N[C@H](C(=O)N1CCC[C@H]1C(=O)N[C@@H](CCCNC(=N)N)C(=O)N1CCC[C@H]1C(=O)N[C@@H](CC(C)C)C(=O)N1CCC[C@H]1C(=O)N[C@@H](Cc1ccccc1)C(=O)N1CCC[C@H]1C(=O)N[C@@H](CSc1ccc2n1[B-](F)(F)[N+]1=CC=CC1=C2)C(=O)O)[C@@H](C)CC (H-RRIRPRPPRLPRPRPRPLPFPRPGPRPIPRPLPFPC(X1)-OH),–,–,Active,Active,Active,Active,–,–,–,–,Drug uptake [13]: Active
CC[C@H](C)[C@H](NC(=O)[C@H](CCCNC(N)=O)NC(=O)[C@@H](N)CCCNC(N)=O)C(=O)N[C@@H](CCCNC(=N)N)C(=O)N1CCC[C@H]1C(=O)N[C@@H](CCCNC(=N)N)C(=O)N1CCC[C@H]1C(=O)N1CCC[C@H]1C(=O)N[C@@H](CCCNC(=N)N)C(=O)N[C@@H](CC(C)C)C(=O)N1CCC[C@H]1C(=O)N[C@@H](CCCNC(=N)N)C(=O)N1CCC[C@H]1C(=O)N[C@@H](CCCNC(=N)N)C(=O)N1CCC[C@H]1C(=O)N[C@@H](CCCNC(=N)N)C(=O)N1CCC[C@H]1C(=O)N[C@@H](CC(C)C)C(=O)N1CCC[C@H]1C(=O)N[C@@H](Cc1ccc(O)cc1)C(=O)N1CCC[C@H]1C(=O)N[C@@H](CCCNC(=N)N)C(=O)N1CCC[C@H]1C(=O)O (H-[Cit][Cit]IRPRPPRLPRPRPRPLPYPRP-OH),–,Active,–,–,–,–,8 µM,32 µM,> 64 µM,32 µM,Drug uptake [9]: Active; Activity [16]: Active; Activity [17]: Active
H-IRPRPPRLPRPRPRPLPYPRP-OH,–,–,–,–,–,–,4 µM,8 µM,32 µM,8 µM,Activity [16]: Active; Activity [17]: Active

# Now from value to molecule, other results behind:
MIC [4],Drug uptake [10],Drug uptake [11],Drug uptake [12],Drug uptake [14],Drug uptake [15],Molecule,MIC [1],MIC [2],MIC [6],MIC [8],also measured
–,Active,–,–,–,–,CC[C@H](C)[C@H](N)C(=O)N[C@@H](CCCNC(=N)N)C(=O)N1CCC[C@H]1C(=O)N[C@@H](CCCNC(=N)N)C(=O)N1CCC[C@H]1C(=O)N1CCC[C@H]1C(=O)N[C@@H](CCCNC(=N)N)C(=O)N[C@@H](CC(C)C)C(=O)N1CCC[C@H]1C(=O)N[C@@H](CCCNC(=N)N)C(=O)N1CCC[C@H]1C(=O)N[C@@H](CCCNC(=N)N)C(=O)N1CCC[C@H]1C(=O)N[C@@H](CCCNC(=N)N)C(=O)N1CCC[C@H]1C(=O)N[C@@H](CC(C)C)C(=O)N1CCC[C@H]1C(=O)N[C@@H](Cc1ccc(O)cc1)C(=O)N1CCC[C@H]1C(=O)N[C@@H](CCCNC(=N)N)C(=O)N1CCC[C@H]1C(=O)N[C@@H](CSc1ccc2n1[B-](F)(F)[N+]1=CC=CC1=C2)C(=O)O (H-IRPRPPRLPRPRPRPLPYPRPC(X1)-OH),–,–,–,–,Drug uptake [9]: Active
8 µM,–,Not Active,Not Active,Not Active,Not Active,CC[C@H](C)[C@H](NC(=O)[C@H](CCCNC(=N)N)NC(=O)[C@@H](N)CCCNC(=N)N)C(=O)N[C@@H](CCCNC(=N)N)C(=O)N1CCC[C@H]1C(=O)N[C@@H](CCCNC(=N)N)C(=O)N1CCC[C@H]1C(=O)N1CCC[C@H]1C(=O)N[C@@H](CCCNC(=N)N)C(=O)N[C@@H](CC(C)C)C(=O)N1CCC[C@H]1C(=O)N[C@@H](CCCNC(=N)N)C(=O)N1CCC[C@H]1C(=O)N[C@@H](CSc1ccc2n1[B-](F)(F)[N+]1=CC=CC1=C2)C(=O)O (H-RRIRPRPPRLPRPC(X1)-OH),–,16 µM,–,–,Drug uptake [13]: Active
1 µM,–,Not Active,Not Active,Not Active,Not Active,CC[C@H](C)[C@H](NC(=O)[C@H](CCCNC(=N)N)NC(=O)[C@@H](N)CCCNC(=N)N)C(=O)N[C@@H](CCCNC(=N)N)C(=O)N1CCC[C@H]1C(=O)N[C@@H](CCCNC(=N)N)C(=O)N1CCC[C@H]1C(=O)N1CCC[C@H]1C(=O)N[C@@H](CCCNC(=N)N)C(=O)N[C@@H](CC(C)C)C(=O)N1CCC[C@H]1C(=O)N[C@@H](CCCNC(=N)N)C(=O)N1CCC[C@H]1C(=O)N[C@@H](CCCNC(=N)N)C(=O)N1CCC[C@H]1C(=O)N[C@@H](CSc1ccc2n1[B-](F)(F)[N+]1=CC=CC1=C2)C(=O)O (H-RRIRPRPPRLPRPRPC(X1)-OH),–,1 µM,–,–,–
